Consider seven compounds from US7414107B2, “Pharmacologically active peptide conjugates having a reduced tendency towards enzymatic hydrolysis” (priority 1998, dated 2008).

In one series the target is T1, leucine aminopeptidase (Sus scrofa, UniProt P28839).
T1 construct: purchased Sigma, UK type III-CP (catalogue number not given); host or cells: porcine kidney
T1 sequence (P28839 1-519): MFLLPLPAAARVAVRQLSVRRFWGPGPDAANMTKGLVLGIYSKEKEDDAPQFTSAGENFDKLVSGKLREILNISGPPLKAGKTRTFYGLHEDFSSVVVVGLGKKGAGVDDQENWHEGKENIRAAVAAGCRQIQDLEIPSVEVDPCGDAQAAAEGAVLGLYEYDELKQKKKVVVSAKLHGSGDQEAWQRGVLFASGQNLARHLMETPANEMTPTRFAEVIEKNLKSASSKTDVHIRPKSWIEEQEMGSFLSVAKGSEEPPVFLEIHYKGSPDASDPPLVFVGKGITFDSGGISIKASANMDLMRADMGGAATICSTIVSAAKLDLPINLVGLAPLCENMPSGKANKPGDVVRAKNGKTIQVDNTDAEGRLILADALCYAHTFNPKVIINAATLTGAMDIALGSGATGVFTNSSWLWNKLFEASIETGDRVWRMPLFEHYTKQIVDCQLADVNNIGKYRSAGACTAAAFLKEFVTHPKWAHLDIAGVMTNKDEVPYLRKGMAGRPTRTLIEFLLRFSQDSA
Description: Hydrolysis kinetics in leucine aminopeptidase solution. In kind it is in vitro ADME, porcine. The conditions noted are these: 50 mM phosphate buffer pH 7.4, 37° C., leucine aminopeptidase 25 U/ml; for half-life: pig. The method, boiled down:
(§1)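 Peptide conjugate or native peptide at ~0.1 mg/ml final (10^−5-10^−4M) incubated at 37° C in 50 mM phosphate pH 7.4 with leucine aminopeptidase (25 U/ml) or carboxypeptidase A (1 or 25 U/ml). Timed samples quenched with TFA/acetonitrile and quantified by RP-HPLC at 215 nm. t1/2 = ln2/kobs from first-order log plots.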

The target in a further series is T2, carboxypeptidase A (Bos taurus, UniProt P00730).
T2 construct: purchased Sigma, UK type I (catalogue number not given); host or cells: bovine pancreas
T2 sequence (P00730 111-419): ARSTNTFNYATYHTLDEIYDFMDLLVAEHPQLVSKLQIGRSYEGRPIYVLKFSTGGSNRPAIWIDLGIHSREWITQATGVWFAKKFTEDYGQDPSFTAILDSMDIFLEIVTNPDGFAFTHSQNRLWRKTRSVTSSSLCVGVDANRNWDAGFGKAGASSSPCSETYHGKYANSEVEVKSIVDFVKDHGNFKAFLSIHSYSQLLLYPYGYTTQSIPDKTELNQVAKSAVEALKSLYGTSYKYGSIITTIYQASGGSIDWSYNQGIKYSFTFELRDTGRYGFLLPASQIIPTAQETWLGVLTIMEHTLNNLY
Briefly: Hydrolysis kinetics in carboxypeptidase A solution. In kind it is in vitro ADME, bovine. Particulars: 50 mM phosphate buffer pH 7.4, 37° C., carboxypeptidase A 1 U/ml. In a few lines: as §1

A further series deals with vas deferens. The conditions noted are these: read-out: EC50 value; half maximal inhibition of electrically-induced contraction, mouse vas deferens. How it is done: (§2) In short: vasa deferentia were isolated from male mice weighing 20-30 g (Mellegaard breeding, DK) and suspended through two electrodes in 10 ml baths at resting tension of 1 g. […] The tissues were stimulated electrically (70 V, 1 ms duration; 0.1 Hz) and contractions were recorded isometrically on a chart recorder. After equilibration of the tissue for at least 20 min, drugs were added in the bath and the maximum effects were measured.
(§3) Prior to addition of the plasma sample, a standard dose-response curve was generated in each preparation in order to express the inhibitory activity as concentration of each test substance. Thus, the calculated concentration is a reflection of inhibitory activity in the vas deferens bioassay preparation.
(§4) Where initial=initial […] contraction force prior to addition of test substance; conc=concentration of test substance; EC50=concentration of test substance that […] produced half maximal inhibition of electrically-induced contraction; background=contraction force during maximal relaxation.

The nature of series [1]: Stability in mouse plasma at 37° C. (vas deferens bioassay readout).
Description: as §3, §4
All enkephalin analogues were dissolved in Krebs buffer in a concentration of 1 mM. Sixty-six μl of each test substance solution (66 nmol enkephalin analog) was incubated with 600 μl plasma at 37° C. […] Functional activity of each test substance in plasma was expressed as the concentration of the test substance that elicited the same inhibition of electrically-induced contraction in the vas deferens bioassay. T1/2 was calculated by fitting the time-concentration data to the equation: conc(t)=conc(0)·e^(−ln2/T1/2)·t where conc(0)=concentration at t=0.

A further series relates to osteoblast. Briefly: Osteoblast retraction assay. It counts as cell-based, mice. How it is done: Retraction assays were performed with osteoblast prepared from calvaria of 1-day old mice according to published protocols (Miller et al., 1976, Science 192:1340-1343). In brief, osteoblasts were seeded in serum-free minimal essential medium-α (αMEM) at a density of 3000 cells per cm^2 into 96-well tissue culture plates coated with 50 μg/ml of type I collagen in phosphate-buffered saline containing 0.1% bovine serum albumin (PBS). One day after plating, PTH compounds were added to a final concentration of 10 nM and incubation was carried out for 1 h. Cells were then fixed and stained with toluidine blue, and the number of retracted cells was counted by visual inspection.

A further series relates to PTH (1-34)-antibody. The conditions noted are these: EIAS(h)-6101 from Peninsula Laboratories; cited from earlier work.
A further series has as its system guinea pig illeum. The conditions noted are these: agonist, induced contraction, illeum not electrically stimulated.
Series [2] in a line: Bioavailability in mice: functional activity in serum after p.o. or i.v. dosing (vas deferens bioassay). How it is done:
Blood samples were centrifuged immediately (3000 g, 4° C.) and serum was isolated and used for activity determination.
as §2

Where a SMILES comes first, the peptide text is derived from it. Where no end group is shown, it is not given here. [ ]: non-standard residue; d: D form. Dap = NC[C@H](N)C(=O)O A value given as a limit tells only on which side of the number the result lay.

Description for guinea pig illeum: Following application of the compounds the induced contraction was measured.

Take `CC(C)C[C@H](NC(=O)[C@H](Cc1ccccc1)NC(=O)CNC(=O)CNC(=O)[C@@H](N)Cc1ccc(O)cc1)C(=O)N[C@@H](CN)C(=O)N[C@@H](CN)C(=O)N[C@@H](CN)C(=O)N[C@@H](CN)C(=O)N[C@@H](CN)C(=O)N[C@@H](CN)C(=O)O` [Leu-Enkephalin-(Dpr)6-OH, H-Tyr-Gly-Gly-Phe-Leu-(Dpr)6-OH] (H-YGGFL[Dap][Dap][Dap][Dap][Dap][Dap]-OH): at leucine aminopeptidase, the “pseudo first-order rate constant for the degradation” value (from here on “pseudo first-order rate constant”) was 0.17 min⁻¹ and the half-life (usually how long it takes for the measured level to halve) was 4.2 min. Also, at carboxypeptidase A, the half-life was found to be 29 min and the “pseudo first-order rate constant” value is 0.024 min⁻¹. The EC50 (as a rule, the concentration that produces a half-maximal response) in the series on vas deferens worked out at 200 nM. For the same compound, in series [1] (plasma), the half-life at 99 µM turned out to be 19.8 min.

Turning to `CC[C@H](C)[C@H](NC(=O)[C@H](CCC(=O)O)NC(=O)[C@H](CO)NC(=O)[C@@H](NC(=O)[C@@H](N)CO)C(C)C)C(=O)N[C@@H](CCC(N)=O)C(=O)N[C@@H](CC(C)C)C(=O)N[C@@H](CCSC)C(=O)N[C@@H](Cc1c[nH]cn1)C(=O)N[C@@H](CC(N)=O)C(=O)N[C@@H](CC(C)C)C(=O)NCC(=O)N[C@@H](CCCCN)C(=O)N[C@@H](Cc1c[nH]cn1)C(=O)N[C@@H](CC(C)C)C(=O)N[C@@H](CC(N)=O)C(=O)N[C@@H](CO)C(=O)N[C@@H](CCSC)C(=O)N[C@@H](CCC(=O)O)C(=O)N[C@@H](CCCNC(=N)N)C(=O)N[C@H](C(=O)N[C@@H](CCC(=O)O)C(=O)N[C@@H](Cc1c[nH]c2ccccc12)C(=O)N[C@@H](CC(C)C)C(=O)N[C@@H](CCCNC(=N)N)C(=O)N[C@@H](CCCCN)C(=O)N[C@@H](CCCCN)C(=O)N[C@@H](CC(C)C)C(=O)N[C@@H](CCC(N)=O)C(=O)N[C@@H](CC(=O)O)C(=O)N[C@H](C(=O)N[C@@H](Cc1c[nH]cn1)C(=O)N[C@@H](CC(N)=O)C(=O)N[C@@H](Cc1ccccc1)C(=O)O)C(C)C)C(C)C` [PTH(1-34)(Human)-OH, H-Ser-Val-Ser-Glu-Ile-Gln-Leu-Met-His-Asn-Leu-Gly-Lys -His-Leu-Asn-Ser-Met-Glu-Arg-Val-Glu-Trp-Leu-Arg-Lys-Lys-Leu-Gln-Asp-Val-His -Asn-Phe-OH, reference compound], the “pseudo first-order rate constant” value at leucine aminopeptidase was 0.0021 min⁻¹; on carboxypeptidase A it was 5.2 min⁻¹. Moreover, the half-life on leucine aminopeptidase amounted to 330 min; at carboxypeptidase A it was 0.13 min. In addition, in the series on osteoblast (10 nM, 1 h, mouse calvaria osteoblasts), the “Retraction assay % Retracted cells” value is listed as 58.2%. Besides, the “activity relative to native, human parathyroid hormone” value in the series with osteoblast (Osteoblast retraction assay) is “approximately 89%”. Moreover, in the series on PTH (1-34)-antibody, the “Specificity of the assay” value is given as 100%.

As to `CSCC[C@H](NC(=O)[C@H](CC(C)C)NC(=O)CNC(=O)[C@H](Cc1ccccc1)NC(=O)[C@H](Cc1ccccc1)NC(=O)[C@H](CCC(N)=O)NC(=O)[C@H](CCC(N)=O)NC(=O)[C@@H]1CCCN1C(=O)[C@H](CCCCN)NC(=O)[C@@H]1CCCN1C(=O)[C@@H](N)CCCNC(=N)N)C(N)=O` [Substance P-NH2, H-Arg-Pro-Lys-Pro-Gln-Gln-Phe-Phe-Gly-Leu-Met-NH2, reference compound], at leucine aminopeptidase, the “pseudo first-order rate constant” value worked out at 0.045 min⁻¹ and the half-life was found to be 16 min. Further, on carboxypeptidase A, the half-life was determined as 35 min and the “pseudo first-order rate constant” value came to 0.02 min⁻¹. This compound also gave an EC50 in the series on guinea pig illeum of 40 nM.

On to “H-KKKKKKRPKPQQFFGLM-NH2 [(Lys)6-Substance P-NH2, H-(Lys)6 Arg-Pro-Lys-Pro-Gln-Gln-Phe-Phe-Gly-Leu -Met-NH2]”, for which, on leucine aminopeptidase, the “pseudo first-order rate constant” value was found to be 0.002 min⁻¹ and the half-life is 347 min. The compound also gave an EC50 in the series with guinea pig illeum of 5 nM.

For “H-YGGFLKEEEEK-OH [Leu-Enkephalin-(Lys-Glu4-Lys)-OH, H-Tyr-Gly-Gly-Phe-Leu-Lys-Glu-Glu-Glu-Glu-Lys--OH]”, at leucine aminopeptidase, the “pseudo first-order rate constant” value is 0.065 min⁻¹ and the half-life was 11 min. Moreover, at carboxypeptidase A, the half-life was 1160 min and the “pseudo first-order rate constant” value came to 0.0006 min⁻¹. Also, in the series on vas deferens, the EC50 was 357 nM. Moreover, the half-life at 99 µM in series [1] (mouse plasma) is 84.5 min.

For “YGGFLEEEEEE [Leu-Enkephalin-(Glu)6-OH, H-Tyr-Gly-Gly-Phe-Leu-Glu6-OH]”, in the series with vas deferens, the EC50 is 140 nM. In the series “Solubility (remark)”, the solubility result is recorded as “very low solubility”.

On to “YGGFLKKKKKK [Leu-Enkephalin-(Lys)6-OH, H-Tyr-Gly-Gly-Phe-Leu-Lys6-OH]”, for which the entries for the “pseudo first-order rate constant” value at leucine aminopeptidase and at carboxypeptidase A were 0.0097 min⁻¹ and 0.0007 min⁻¹, respectively. Also, the half-life is 72 min at leucine aminopeptidase and 990 min on carboxypeptidase A (cattle, carboxypeptidase A solution (1 U/ml) in phosphate buffer). In addition, the “Functional activity in serum” value in series [2] (50 mg/kg i.v., 5 min) came to 15.9 ± 2.4 µM; in [2] (50 mg/kg i.v., 15 min), 8.5 ± 1.2 µM; in series [2] (50 mg/kg i.v., 30 min), 6 ± 0.95 µM; in [2] (50 mg/kg i.v., 60 min), 1.6 ± 0.34 µM; in series [2] (50 mg/kg i.v., 180 min), 0.44 ± 0.11 µM; in series [2] (50 mg/kg i.v., 240 min), 2.5 ± 0.32 µM. The “Functional activity in serum” value in series [2] (50 mg/kg i.v., 370 min) was 31.2 ± 8.62 µM; in series [2] (50 mg/kg i.v., 720 min) it was “<Detection Limit”; in series [2] (50 mg/kg i.v., 1080 min), “<Detection Limit”; in [2] (50 mg/kg i.v., 1440 min), “<Detection Limit”; in series [2] (50 mg/kg p.o., 0 min), 0 µM; in series [2] (50 mg/kg p.o., 15 min), “<Detection Limit”. In addition, the “Functional activity in serum” value in [2] (50 mg/kg p.o., 30 min) was determined as 3 ± 0.8 µM; in series [2] (50 mg/kg p.o., 60 min), 6 ± 1.3 µM; in series [2] (50 mg/kg p.o., 90 min), 10.9 ± 3.8 µM; in [2] (50 mg/kg p.o., 240 min), 10.7 ± 0.23 µM; in [2] (50 mg/kg p.o., 480 min), 5 ± 0.58 µM; in series [2] (50 mg/kg p.o., 960 min), 2.8 ± 0.78 µM. The “Functional activity in serum” value in [2] (50 mg/kg p.o., 1380 min) is given as “<Detection Limit”. Besides, the “time at which activity in serum reached a maximum” value in series [2] (50 mg/kg p.o.) lay in the range of 90 to 240 min. Further, the EC50 in the series on vas deferens was 160 nM. In [1] (plasma), the half-life at 99 µM came to 18.7 min.
